Measured values: patent publication US8889677B2, “Substituted triazoles useful as mGlu5 receptor modulators” (Boehringer Ingellheim International GmbH, priority 2012, dated 2014)

Molecular target: T1, human recombinant mGluR5 (Homo sapiens, UniProt P41594)
T1 construct: expressed in transfected cells; host or cells: HEK 293 cell line cultured with tetracycline, hygromycin and geneticin; tetracycline removed 3-7 days before the assay
Assay: positive modulation of mGluR5, calcium based FLIPR assay in HEK 293 cells
Conditions: HEK 293 cell line expressing human recombinant mGluR5; EC50 of the modulation of the glutamate response (glutamate approx. 5% basal stimulation); peak height of Ca release fluorescence signal
Summary of the method: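 HEK 293 cells expressing human mGluR5 (tetracycline-free medium 3-7 days before), loaded with Calcium-4 dye, in Ringer buffer pH 7.4, 1% DMSO. Compound pre-incubated 5 min, then glutamate at about 5% of maximal effect added; EC50 from peak Ca2+ fluorescence by nonlinear regression, scaled between DMSO (100%) and 10 μM CDPPB (200%) controls.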

T1 sequence (P41594 21-1212): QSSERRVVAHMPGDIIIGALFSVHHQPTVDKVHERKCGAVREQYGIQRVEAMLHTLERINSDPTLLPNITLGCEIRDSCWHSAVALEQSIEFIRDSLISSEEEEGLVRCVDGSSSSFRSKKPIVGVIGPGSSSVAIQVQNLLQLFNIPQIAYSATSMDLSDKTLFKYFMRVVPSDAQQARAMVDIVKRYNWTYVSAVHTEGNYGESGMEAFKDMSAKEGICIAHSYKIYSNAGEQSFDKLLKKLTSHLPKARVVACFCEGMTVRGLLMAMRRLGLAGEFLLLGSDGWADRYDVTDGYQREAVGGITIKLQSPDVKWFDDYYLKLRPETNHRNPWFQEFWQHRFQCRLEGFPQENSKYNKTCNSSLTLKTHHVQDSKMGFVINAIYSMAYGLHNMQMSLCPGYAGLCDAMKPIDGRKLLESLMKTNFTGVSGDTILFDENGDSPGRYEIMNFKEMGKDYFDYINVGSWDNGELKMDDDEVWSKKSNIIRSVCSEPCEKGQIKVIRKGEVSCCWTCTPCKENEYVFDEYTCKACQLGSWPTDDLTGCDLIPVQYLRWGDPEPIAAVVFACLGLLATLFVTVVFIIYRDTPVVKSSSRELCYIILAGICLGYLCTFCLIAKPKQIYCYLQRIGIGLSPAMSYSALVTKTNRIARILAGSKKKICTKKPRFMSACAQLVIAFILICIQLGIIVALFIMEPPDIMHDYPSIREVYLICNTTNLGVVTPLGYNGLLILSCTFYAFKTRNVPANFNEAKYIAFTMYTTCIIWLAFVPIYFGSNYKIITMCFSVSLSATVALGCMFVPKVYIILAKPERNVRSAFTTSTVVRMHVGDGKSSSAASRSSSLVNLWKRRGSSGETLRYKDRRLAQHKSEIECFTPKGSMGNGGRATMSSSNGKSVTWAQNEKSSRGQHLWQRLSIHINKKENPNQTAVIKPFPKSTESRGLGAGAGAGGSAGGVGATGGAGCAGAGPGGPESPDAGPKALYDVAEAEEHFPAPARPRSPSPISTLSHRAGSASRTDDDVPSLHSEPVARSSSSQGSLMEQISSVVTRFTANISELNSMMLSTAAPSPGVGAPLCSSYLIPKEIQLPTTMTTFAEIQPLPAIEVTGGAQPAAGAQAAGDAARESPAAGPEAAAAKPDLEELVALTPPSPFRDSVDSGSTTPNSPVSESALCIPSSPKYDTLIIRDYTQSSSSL

Structure (SMILES) | EC50 [nM]
O=C(Cn1nc(-c2ccc(F)cc2)nc1-c1ccc(F)cc1)N1CCN(c2cc(OCCN3CCNC3=O)ncn2)CC1 [Example 07.09.18.] | 103
O=C(Cn1nc(-c2ccc(F)cc2)nc1-c1ccc(F)cc1)N1CCN(c2cc(OCCCN3CCOCC3)ncn2)CC1 [Example 07.09.19.] | 200
O=C(Cn1nc(-c2ccc(F)cc2)nc1-c1ccc(F)cc1)N1CCN(c2cc(OC3CCOCC3)ncn2)CC1 [Example 07.09.21.] | 79
O=C1CC(COc2cc(N3CCN(C(=O)Cn4nc(-c5ccc(F)cc5)nc4-c4ccc(F)cc4)CC3)ncn2)CN1 (stereo not drawn) [Example 07.09.24.] | 101
CN(CCO)CCOc1cc(N2CCN(C(=O)Cn3nc(-c4ccc(F)cc4)nc3-c3ccc(F)cc3)CC2)ncn1 [Example 07.09.25.] | 301
CN1CCN(CCCOc2cc(N3CCN(C(=O)Cn4nc(-c5ccc(F)cc5)nc4-c4ccc(F)cc4)CC3)ncn2)CC1 [Example 07.09.26.] | 252
O=C1CCCN1CCCOc1cc(N2CCN(C(=O)Cn3nc(-c4ccc(F)cc4)nc3-c3ccc(F)cc3)CC2)ncn1 [Example 07.09.27.] | 86
CN1CCN(CCOc2cc(N3CCN(C(=O)Cn4nc(-c5ccc(F)cc5)nc4-c4ccc(F)cc4)CC3)ncn2)CC1 [Example 07.09.28.] | 523
N#Cc1cccc(-c2nc(-c3ccccc3)n(CC(=O)N3CCN(c4ncccn4)CC3)n2)c1 [Example 07.10.06.] | 164
O=C(Cn1nc(-c2cccc(F)c2)nc1-c1ccccc1)N1CCN(c2ncccn2)CC1 [Example 07.10.07.] | 189
COCc1cccc(-c2nc(-c3ccccc3)n(CC(=O)N3CCN(c4ncccn4)CC3)n2)c1 [Example 07.10.08.] | 181
COc1cc(OC)cc(-c2nc(-c3ccccc3)n(CC(=O)N3CCN(c4ncccn4)CC3)n2)c1 [Example 07.10.09.] | 553
CC(C)Oc1ccc(-c2nc(-c3ccccc3)n(CC(=O)N3CCN(c4ncccn4)CC3)n2)cc1 [Example 07.10.18.] | 1050
Cc1cccc(-c2nc(-c3ccccc3)nn2CC(=O)N2CCN(c3ncccn3)CC2)c1 [Example 07.10.19.] | 233
N#CCc1ccc(-c2nc(-c3ccccc3)nn2CC(=O)N2CCN(c3ncccn3)CC2)cc1 [Example 07.10.21.] | 1500
Cc1ccc(-c2nc(-c3ccccc3)nn2CC(=O)N2CCN(c3ncccn3)CC2)cc1 [Example 07.10.22.] | 87
O=C(Cn1nc(-c2ccccc2)nc1C1=CCCC1)N1CCN(c2ncccn2)CC1 [Example 07.10.23.] | 459
COCc1ccc(-c2nc(-c3ccccc3)nn2CC(=O)N2CCN(c3ncccn3)CC2)cc1 [Example 07.10.24.] | 300

Structure (SMILES) | EC50 [nM]
N#Cc1ccc(-c2nc(-c3ccccc3)nn2CC(=O)N2CCN(c3ncccn3)CC2)cc1 [Example 07.10.25.] | 639
O=C(Cn1nc(-c2ccccc2)nc1C1=CCCCC1)N1CCN(c2ncccn2)CC1 [Example 07.10.26.] | 543
C=C(C)c1nc(-c2ccccc2)nn1CC(=O)N1CCN(c2ncccn2)CC1 [Example 07.10.27.] | 1470
O=C(Cn1nc(-c2ccccc2)nc1-c1ccc(CN2CCOCC2)cc1)N1CCN(c2ncccn2)CC1 [Example 07.10.28.] | 804
COc1cc(N2CCN(C(=O)Cn3nc(-c4ccc(C5CC5)cc4)nc3-c3ccccc3)CC2)ncn1 [Example 07.10.29.] | 219
COc1cc(N2CCN(C(=O)Cn3nc(-c4ccc(F)c(C(F)(F)F)c4)nc3-c3ccccc3)CC2)ncn1 [Example 07.10.31.] | 270
COc1cc(N2CCN(C(=O)Cn3nc(-c4ccc(F)cc4)nc3-c3ccccc3)CC2)ncn1 [Example 07.10.32.] | 225
COc1cc(N2CCN(C(=O)Cn3nc(-c4ccc(F)c(F)c4)nc3-c3ccccc3)CC2)ncn1 [Example 07.10.33.] | 359
COc1cc(N2CCN(C(=O)Cn3nc(-c4cccc(C(C)C)c4)nc3-c3ccccc3)CC2)ncn1 [Example 07.10.34.] | 157
COc1cc(N2CCN(C(=O)Cn3nc(-c4cccc(C)c4)nc3-c3ccccc3)CC2)ncn1 [Example 07.10.35.] | 98
COc1cc(N2CCN(C(=O)Cn3nc(-c4cc(C)cc(C)c4)nc3-c3ccccc3)CC2)ncn1 [Example 07.10.36.] | 121
COc1cc(N2CCN(C(=O)Cn3nc(-c4ccc(F)c(Cl)c4)nc3-c3ccccc3)CC2)ncn1 [Example 07.10.37.] | 101
COc1cc(N2CCN(C(=O)Cn3nc(-c4cc(F)c(F)c(F)c4)nc3-c3ccccc3)CC2)ncn1 [Example 07.10.39.] | 389
O=C(Cn1nc(-c2ccc(F)cc2)nc1-c1ccccc1)N1CCN(c2ccccn2)CC1 [Example 07.10.40.] | 128
COc1ccc(-c2nc(-c3ccc(F)cc3)nn2CC(=O)N2CCN(c3ccccn3)CC2)cc1 [Example 07.10.41.] | 182
O=C(Cn1nc(-c2ccc(F)cc2)nc1C#Cc1ccccc1)N1CCN(c2ccccn2)CC1 [Example 07.11.01., 2-(3-(4-fluoro-phenyl)-5-phenylethynyl-(1,2,4)triazol-1-yl)-1-(4-pyridin-2-yl-piperazin-1-yl)-ethanone] | 98
O=C(Cn1nc(-c2ccc(F)cc2)nc1C#CC1CCCCC1)N1CCN(c2ccccn2)CC1 [Example 07.11.02.] | 416

Results, then the molecule that gave them:

EC50 [nM] | Structure (SMILES)
65 | O=C(Cn1nc(-c2ccc(F)cc2)nc1-c1ccc(F)cc1)N1CCN(c2cc(OCCCO)ncn2)CC1 [Example 07.09.20.]
39 | O=C(Cn1nc(-c2ccc(F)cc2)nc1-c1ccc(F)cc1)N1CCN(c2cc(OCc3cccnc3)ncn2)CC1 [Example 07.09.22.]
62 | O=C(Cn1nc(-c2ccc(F)cc2)nc1-c1ccc(F)cc1)N1CCN(c2cc(OC[C@@H]3CCCO3)ncn2)CC1 [Example 07.09.23.]
44 | O=C(Cn1nc(-c2ccc(F)cc2)nc1-c1ccc(F)cc1)N1CCN(c2cc(OCC3CCOCC3)ncn2)CC1 [Example 07.09.29.]
75 | COC[C@H](C)Oc1cc(N2CCN(C(=O)Cn3nc(-c4ccc(F)cc4)nc3-c3ccc(F)cc3)CC2)ncn1 [Example 07.09.30.]
11 | Cc1cc(-c2nc(-c3ccccc3)n(CC(=O)N3CCN(c4ncccn4)CC3)n2)ccc1F [Example 07.10.01., 2-(3-(4-fluoro-3-methyl-phenyl)-5-phenyl-(1,2,4)triazol-1-yl)-1-(4-pyrimidin-2-yl-piperazin-1-yl)-ethanone]
37 | COc1ccc(-c2nc(-c3ccccc3)n(CC(=O)N3CCN(c4ncccn4)CC3)n2)cc1 [Example 07.10.02.]
15 | CCc1cccc(-c2nc(-c3ccccc3)n(CC(=O)N3CCN(c4ncccn4)CC3)n2)c1 [Example 07.10.03.]
43 | CCOc1cccc(-c2nc(-c3ccccc3)n(CC(=O)N3CCN(c4ncccn4)CC3)n2)c1 [Example 07.10.04.]
17 | Cc1cccc(-c2nc(-c3ccccc3)n(CC(=O)N3CCN(c4ncccn4)CC3)n2)c1 [Example 07.10.05.]
50 | COc1cccc(-c2nc(-c3ccccc3)n(CC(=O)N3CCN(c4ncccn4)CC3)n2)c1 [Example 07.10.10.]
23 | Cc1ccc(-c2nc(-c3ccccc3)n(CC(=O)N3CCN(c4ncccn4)CC3)n2)cc1 [Example 07.10.12.]
77 | CCOc1ccc(-c2nc(-c3ccccc3)n(CC(=O)N3CCN(c4ncccn4)CC3)n2)cc1 [Example 07.10.13.]
33 | O=C(Cn1nc(-c2ccc(F)cc2)nc1-c1ccccc1)N1CCN(c2ncccn2)CC1 [Example 07.10.14.]
24 | Cc1ccc(-c2nc(-c3ccccc3)n(CC(=O)N3CCN(c4ncccn4)CC3)n2)cc1C [Example 07.10.15.]
31 | Cc1cc(C)cc(-c2nc(-c3ccccc3)n(CC(=O)N3CCN(c4ncccn4)CC3)n2)c1 [Example 07.10.16.]
43 | COc1ccc(-c2nc(-c3ccccc3)n(CC(=O)N3CCN(c4ncccn4)CC3)n2)cc1C [Example 07.10.17.]
35 | CC(C)c1ccc(-c2nc(-c3ccccc3)nn2CC(=O)N2CCN(c3ncccn3)CC2)cc1 [Example 07.10.20.]
50 | COc1cc(N2CCN(C(=O)Cn3nc(-c4ccc(C)c(C)c4)nc3-c3ccccc3)CC2)ncn1 [Example 07.10.30.]
